Measured values as given in ChEMBL document CHEMBL4138146, “A Schmidt rearrangement-mediated synthesis of novel tetrahydro-benzo[1,4]diazepin-5-ones as potential anticancer and antiprotozoal agents” (Eur J Med Chem, 2017).

What was measured:
Assay type in all cases: functional
A549 = test: Growth inhibition of human A549/ATCC cells assessed as cell growth at 10^-8 M incubated for 48 hrs by sulforhodamine B assay relative to control; settings: A549, 48 h, read-out: Activity
HOP-92 [1] = test: Growth inhibition of human HOP92 cells assessed as cell growth at 10^-8 M incubated for 48 hrs by sulforhodamine B assay relative to control; settings: HOP-92, 48 h, read-out: Activity
KM12 = test: Growth inhibition of human KM12 cells assessed as cell growth at 10^-8 M incubated for 48 hrs by sulforhodamine B assay relative to control; settings: KM12, 48 h, read-out: Activity
SW-620 [2] = test: Growth inhibition of human SW620 cells assessed as cell growth at 10^-8 M incubated for 48 hrs by sulforhodamine B assay relative to control; settings: SW-620, 48 h, read-out: Activity
SF-539 [3] = test: Growth inhibition of human SF539 cells assessed as cell growth at 10^-8 M incubated for 48 hrs by sulforhodamine B assay relative to control; settings: SF-539, 48 h, read-out: Activity
UACC-257 = test: Growth inhibition of human UACC257 cells assessed as cell growth at 10^-8 M incubated for 48 hrs by sulforhodamine B assay relative to control; settings: UACC-257, 48 h, read-out: Activity
IGROV-1 = test: Growth inhibition of human IGROV1 cells assessed as cell growth at 10^-8 M incubated for 48 hrs by sulforhodamine B assay relative to control; settings: IGROV-1, 48 h, read-out: Activity
OVCAR-4 [4] = test: Growth inhibition of human OVCAR4 cells assessed as cell growth at 10^-8 M incubated for 48 hrs by sulforhodamine B assay relative to control; settings: OVCAR-4, 48 h, read-out: Activity
T47D = test: Growth inhibition of human T47D cells assessed as cell growth at 10^-8 M incubated for 48 hrs by sulforhodamine B assay relative to control; settings: read-out: Activity
HL-60(TB) [5] = test: Growth inhibition of human HL-60(TB) cells assessed as cell growth at 10^-7 M incubated for 48 hrs by sulforhodamine B assay relative to control; settings: HL-60, 48 h, read-out: Activity
NCI-H23 = test: Growth inhibition of human NCI-H23 cells assessed as cell growth at 10^-7 M incubated for 48 hrs by sulforhodamine B assay relative to control; settings: NCI-H23, 48 h, read-out: Activity
M14 [6] = test: Growth inhibition of human M14 cells assessed as cell growth at 10^-7 M incubated for 48 hrs by sulforhodamine B assay relative to control; settings: M14, 48 h, read-out: Activity
NCI/ADR-RES [7] = test: Growth inhibition of human NCI/ADR-RES cells assessed as cell growth at 10^-7 M incubated for 48 hrs by sulforhodamine B assay relative to control; settings: read-out: Activity
HL-60(TB) [8] = test: Growth inhibition of human HL-60(TB) cells assessed as cell growth at 10^-6 M incubated for 48 hrs by sulforhodamine B assay relative to control; settings: HL-60, 48 h, read-out: Activity
HOP-62 = test: Growth inhibition of human HOP62 cells assessed as cell growth at 10^-6 M incubated for 48 hrs by sulforhodamine B assay relative to control; settings: HOP-62, 48 h, read-out: Activity
NCI-H522 = test: Growth inhibition of human NCI-H522 cells assessed as cell growth at 10^-6 M incubated for 48 hrs by sulforhodamine B assay relative to control; settings: NCI-H522, 48 h, read-out: Activity
SNB-19 [9] = test: Growth inhibition of human SNB19 cells assessed as cell growth at 10^-6 M incubated for 48 hrs by sulforhodamine B assay relative to control; settings: SNB-19, 48 h, read-out: Activity
LOX IMVI = test: Growth inhibition of human LOXIMVI cells assessed as cell growth at 10^-6 M incubated for 48 hrs by sulforhodamine B assay relative to control; settings: read-out: Activity
M14 [10] = test: Growth inhibition of human M14 cells assessed as cell growth at 10^-6 M incubated for 48 hrs by sulforhodamine B assay relative to control; settings: M14, 48 h, read-out: Activity
SK-MEL-5 = test: Growth inhibition of human SK-MEL-5 cells assessed as cell growth at 10^-6 M incubated for 48 hrs by sulforhodamine B assay relative to control; settings: SK-MEL-5, 48 h, read-out: Activity
OVCAR-4 [11] = test: Growth inhibition of human OVCAR4 cells assessed as cell growth at 10^-6 M incubated for 48 hrs by sulforhodamine B assay relative to control; settings: OVCAR-4, 48 h, read-out: Activity
NCI-H226 = test: Growth inhibition of human NCI-H226 cells assessed as cell growth at 10^-5 M incubated for 48 hrs by sulforhodamine B assay relative to control; settings: NCI-H226, 48 h, read-out: Activity
COLO 205 = test: Growth inhibition of human COLO205 cells assessed as cell growth at 10^-5 M incubated for 48 hrs by sulforhodamine B assay relative to control; settings: COLO 205, 48 h, read-out: Activity
SNB-19 [12] = test: Growth inhibition of human SNB19 cells assessed as cell growth at 10^-5 M incubated for 48 hrs by sulforhodamine B assay relative to control; settings: SNB-19, 48 h, read-out: Activity
MDA-MB-435 [13] = test: Growth inhibition of human MDA-MB-435 cells assessed as cell growth at 10^-5 M incubated for 48 hrs by sulforhodamine B assay relative to control; settings: MDA-MB-435, 48 h, read-out: Activity
786-0 = test: Growth inhibition of human 786-0 cells assessed as cell growth at 10^-5 M incubated for 48 hrs by sulforhodamine B assay relative to control; settings: 786-0, 48 h, read-out: Activity
TK-10 = test: Growth inhibition of human TK10 cells assessed as cell growth at 10^-5 M incubated for 48 hrs by sulforhodamine B assay relative to control; settings: TK-10, 48 h, read-out: Activity
MDA-MB-468 = test: Growth inhibition of human MDA-MB-468 cells assessed as cell growth at 10^-5 M incubated for 48 hrs by sulforhodamine B assay relative to control; settings: MDA-MB-468, 48 h, read-out: Activity
HOP-92 [14] = test: Growth inhibition of human HOP92 cells assessed as cell growth at 10^-4 M incubated for 48 hrs by sulforhodamine B assay relative to control; settings: HOP-92, 48 h, read-out: Activity
SW-620 [15] = test: Growth inhibition of human SW620 cells assessed as cell growth at 10^-4 M incubated for 48 hrs by sulforhodamine B assay relative to control; settings: SW-620, 48 h, read-out: Activity
SF-539 [16] = test: Growth inhibition of human SF539 cells assessed as cell growth at 10^-4 M incubated for 48 hrs by sulforhodamine B assay relative to control; settings: SF-539, 48 h, read-out: Activity
MDA-MB-435 [17] = test: Growth inhibition of human MDA-MB-435 cells assessed as cell growth at 10^-4 M incubated for 48 hrs by sulforhodamine B assay relative to control; settings: MDA-MB-435, 48 h, read-out: Activity
NCI/ADR-RES [18] = test: Growth inhibition of human NCI/ADR-RES cells assessed as cell growth at 10^-4 M incubated for 48 hrs by sulforhodamine B assay relative to control; settings: read-out: Activity
PC-3 = test: Growth inhibition of human PC3 cells assessed as cell growth at 10^-4 M incubated for 48 hrs by sulforhodamine B assay relative to control; settings: PC-3, 48 h, read-out: Activity

## CCCCOc1nc2ccccc2cc1C1CNC(=O)c2ccccc2N1 (centres undefined)
A549
  growth at 0.01 µM: 100%
HOP-92 [1]
  growth at 0.01 µM: 76%
KM12
  growth at 0.01 µM: 98%
SW-620 [2]
  growth at 0.01 µM: 96%
SF-539 [3]
  growth at 0.01 µM: 89%
UACC-257
  growth at 0.01 µM: 97%
IGROV-1
  growth at 0.01 µM: 97%
OVCAR-4 [4]
  growth at 0.01 µM: 92%
T47D
  growth at 0.01 µM: 86%
HL-60(TB) [5]
  growth at 0.1 µM: 26%
NCI-H23
  growth at 0.1 µM: 95%
M14 [6]
  growth at 0.1 µM: 91%
NCI/ADR-RES [7]
  growth at 0.1 µM: 97%
HL-60(TB) [8]
  growth at 1 µM: -19%
HOP-62
  growth at 1 µM: 78%
NCI-H522
  growth at 1 µM: 65%
SNB-19 [9]
  growth at 1 µM: 95%
LOX IMVI
  growth at 1 µM: 80%
M14 [10]
  growth at 1 µM: 61%
SK-MEL-5
  growth at 1 µM: 73%
OVCAR-4 [11]
  growth at 1 µM: 85%
NCI-H226
  growth at 10 µM: 7%
COLO 205
  growth at 10 µM: -43%
SNB-19 [12]
  growth at 10 µM: 38%
MDA-MB-435 [13]
  growth at 10 µM: -58%
786-0
  growth at 10 µM: 1%
TK-10
  growth at 10 µM: 31%
MDA-MB-468
  growth at 10 µM: -10%
HOP-92 [14]
  growth at 100 µM: -38%
SW-620 [15]
  growth at 100 µM: -24%
SF-539 [16]
  growth at 100 µM: -70%
MDA-MB-435 [17]
  growth at 100 µM: -74%
NCI/ADR-RES [18]
  growth at 100 µM: -50%
PC-3
  growth at 100 µM: -63%
